The source of these data is ChEMBL document CHEMBL1201862, “PubChem BioAssay data set” (2004).

For one test, the system named is HepG2. In words: HepG2 Cytotoxicity Assay Measured in Cell-Based System Using Plate Reader - 7071-02_Inhibitor_Dose_CherryPick_Activity. Particulars: Homo sapiens. The class given is functional.
Test [1] concerns HEK293. As to the kind of experiment: viability loss in HEK293T cells – cell-based, ATP luminescence, cherry-pick samples, cytotoxicity control, dose response (AID 687005).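 Also: cells exposed to compound for 48 hours.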 It counts as functional. Particulars: Homo sapiens.
Test [2] in a line: HEK293 Cytotoxicity Assay Measured in Cell-Based System Using Plate Reader - 7071-01_Inhibitor_Dose_CherryPick_Activity_Set2. The class given is functional.
Test [3] can be described thus: viability loss in HepG2 hepatoma cells – cell-based, cherry-picks, set 5, cytotoxicity control, dose response (AID 1053118). It counts as functional.
Test [4] in a line: viability loss in HEK293 kidney cells – cell-based, cherry-picks, set 5, cytotoxicity control, dose response (AID 1053117). It counts as functional.
A short description of test [5]: viability loss in A549 lung cancer cells – cell-based, cherry-picks, […], cytotoxicity control, dose response (AID 1053119). The class given is functional.
A further test has as its system Cryptococcus neoformans. In words: PubChem AID 686997. The class given is functional, organism-based.
Another test relates to HeLa. In words: viability loss in HeLa cells – cell-based, ATP luminescence, cherry-pick samples, cytotoxicity control, dose response (AID 687004). It counts as functional. Conditions: Homo sapiens.
Test [6] addresses Potassium channel subfamily K member 9 (Homo sapiens, UniProt Q9NPC2). In words: KCNK9 flux blockade, concentration-response – cell-based, FluxOR thallium flux, selectivity assay for TASK1 inhibitor project, SAR follow-up (AID 652211).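 Also: potency is for inhibitors of the channel.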 The class given is functional.
Test [7] is described as follows: general mammalian cell viability loss – activator set, cherry-pick, cytotoxicity control for miR-122 modulator project, dose response (AID 720690).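 Also: HEK293T human cells scored for general mammalian cytotoxicity.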 It counts as functional, cell-based.
A further test concerns the target NS3 (Hepatitis C virus, UniProt A3EZJ3). As to the kind of experiment: NS3h DNA-binding inhibition IC50 – biochemical, fluorescence polarization, ChemBridge library, dose response (AID 743264). For orientation: Polarisation of emitted light reports the rotation of a fluorescent probe.
The target in test [8] is T1, High affinity choline transporter 1 (Homo sapiens, UniProt Q9GZV3).
T1 sequence (Q9GZV3 whole entry): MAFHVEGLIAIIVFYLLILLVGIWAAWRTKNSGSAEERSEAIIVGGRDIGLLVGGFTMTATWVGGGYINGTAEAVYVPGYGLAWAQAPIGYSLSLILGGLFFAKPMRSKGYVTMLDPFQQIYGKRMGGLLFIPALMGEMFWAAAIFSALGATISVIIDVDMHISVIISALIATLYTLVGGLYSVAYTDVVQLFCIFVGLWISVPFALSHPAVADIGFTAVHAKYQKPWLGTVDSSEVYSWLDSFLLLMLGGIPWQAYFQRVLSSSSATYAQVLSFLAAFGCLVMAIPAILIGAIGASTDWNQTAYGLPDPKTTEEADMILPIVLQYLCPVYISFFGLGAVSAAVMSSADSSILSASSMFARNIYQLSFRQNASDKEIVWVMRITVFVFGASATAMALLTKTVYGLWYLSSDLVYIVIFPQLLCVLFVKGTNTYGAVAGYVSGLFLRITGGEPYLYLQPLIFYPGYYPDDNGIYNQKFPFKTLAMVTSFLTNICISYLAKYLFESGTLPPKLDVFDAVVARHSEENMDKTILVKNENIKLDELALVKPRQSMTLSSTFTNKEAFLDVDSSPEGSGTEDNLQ
In words: inhibition of SLC5A7-mediated choline transport – cell-based, HEK-293 hCHT, [3H]-choline uptake, dose response (AID 652177). The class given is functional.

The test system of test [9] is HEK293. As to the kind of experiment: inhibition of NOD1-driven NF-kB reporter – cell-based, luminescence, uHTS, primary screen (AID 1578). It counts as functional. Particulars: Homo sapiens.
In test [10] the test system is HEK293. In words: cells. The class given is functional, cell-based. Conditions: Homo sapiens.
The test system of test [11] is HEK293. As to the kind of experiment: cells. Particulars: Homo sapiens. The class given is functional, cell-based. This is another data set of the same source.
Test [12] concerns the target Nucleotide-binding oligomerization domain-containing protein 2 (Homo sapiens, UniProt Q9HC29). In words: inhibition of NOD2-driven NF-kB reporter – cell-based, luminescence, uHTS, HEK293 (AID 1566). The class given is functional.
For test [13], the system named is HEK293. As to the kind of experiment: NOD2 signaling inhibitors in MDP-stimulated cells, cell-based, uHTS, luminescence (AID 2001). The class given is functional. Particulars: Homo sapiens.
For test [14], the system named is HEK293. In words: cells. The class given is functional, cell-based. Conditions: Homo sapiens. The source holds these as a separate data set.
The target in a further test is Albumin (Bos taurus, UniProt P02769). As to the kind of experiment: Counterscreen for inhibitors of T-cell receptor (TCR)-CD3 interaction: Fluorescence-based biochemical high throughput dose response assay to identify inhibitors of T-cell receptor (TCR)-CD3 interaction using a TAMRA-labeled BSA probe. It counts as functional. (A counterscreen serves to expose hits that act by an unwanted route or on another target.)

Active and inactive are the calls of the source. Some results are limits rather than exact numbers.

Sequence of Nucleotide-binding oligomerization domain-containing protein 2 (Q9HC29 whole entry, the tested form may be a part): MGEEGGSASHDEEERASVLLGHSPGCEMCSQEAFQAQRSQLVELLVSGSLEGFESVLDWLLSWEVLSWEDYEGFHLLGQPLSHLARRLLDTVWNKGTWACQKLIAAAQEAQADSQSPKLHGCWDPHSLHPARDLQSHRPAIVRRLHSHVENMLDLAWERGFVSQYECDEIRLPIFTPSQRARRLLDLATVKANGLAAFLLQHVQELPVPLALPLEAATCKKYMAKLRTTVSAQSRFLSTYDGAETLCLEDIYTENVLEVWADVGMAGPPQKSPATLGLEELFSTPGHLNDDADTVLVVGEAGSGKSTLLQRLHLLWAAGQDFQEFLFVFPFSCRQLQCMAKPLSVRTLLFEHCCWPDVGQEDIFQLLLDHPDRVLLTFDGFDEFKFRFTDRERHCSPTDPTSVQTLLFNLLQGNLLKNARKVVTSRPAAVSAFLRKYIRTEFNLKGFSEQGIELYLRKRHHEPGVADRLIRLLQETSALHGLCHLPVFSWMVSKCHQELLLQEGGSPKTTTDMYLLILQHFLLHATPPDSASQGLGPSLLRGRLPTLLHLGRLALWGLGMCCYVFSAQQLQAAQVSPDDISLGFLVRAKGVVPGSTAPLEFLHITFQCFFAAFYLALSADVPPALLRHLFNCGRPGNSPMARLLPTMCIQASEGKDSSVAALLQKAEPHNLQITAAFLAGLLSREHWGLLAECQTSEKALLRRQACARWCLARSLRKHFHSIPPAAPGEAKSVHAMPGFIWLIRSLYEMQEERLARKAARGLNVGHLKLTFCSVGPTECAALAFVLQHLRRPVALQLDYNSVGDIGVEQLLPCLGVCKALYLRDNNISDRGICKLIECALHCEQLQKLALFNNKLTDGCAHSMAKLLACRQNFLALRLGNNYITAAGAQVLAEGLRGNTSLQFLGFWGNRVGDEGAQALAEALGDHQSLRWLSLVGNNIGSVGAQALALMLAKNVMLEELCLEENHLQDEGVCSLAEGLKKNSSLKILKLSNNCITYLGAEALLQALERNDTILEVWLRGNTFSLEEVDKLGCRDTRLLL
Sequence of NS3 (A3EZJ3 whole entry): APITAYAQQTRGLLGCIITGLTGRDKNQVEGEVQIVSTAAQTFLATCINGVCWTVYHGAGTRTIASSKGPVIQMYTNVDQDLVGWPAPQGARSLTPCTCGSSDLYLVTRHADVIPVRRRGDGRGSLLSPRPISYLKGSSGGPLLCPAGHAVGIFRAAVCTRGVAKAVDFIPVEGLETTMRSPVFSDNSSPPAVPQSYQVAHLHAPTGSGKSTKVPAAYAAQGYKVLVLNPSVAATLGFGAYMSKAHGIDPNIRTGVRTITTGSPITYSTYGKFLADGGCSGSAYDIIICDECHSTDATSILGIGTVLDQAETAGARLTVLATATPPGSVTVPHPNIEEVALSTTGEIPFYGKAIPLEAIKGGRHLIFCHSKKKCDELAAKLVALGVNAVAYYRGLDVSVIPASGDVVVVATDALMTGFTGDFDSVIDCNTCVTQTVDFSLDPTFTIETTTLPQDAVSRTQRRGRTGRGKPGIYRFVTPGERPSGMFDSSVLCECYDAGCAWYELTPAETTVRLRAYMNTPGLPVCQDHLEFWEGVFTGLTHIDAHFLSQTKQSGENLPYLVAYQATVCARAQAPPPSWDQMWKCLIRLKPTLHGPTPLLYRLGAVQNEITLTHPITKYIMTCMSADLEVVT
Sequence of Albumin (P02769 whole entry): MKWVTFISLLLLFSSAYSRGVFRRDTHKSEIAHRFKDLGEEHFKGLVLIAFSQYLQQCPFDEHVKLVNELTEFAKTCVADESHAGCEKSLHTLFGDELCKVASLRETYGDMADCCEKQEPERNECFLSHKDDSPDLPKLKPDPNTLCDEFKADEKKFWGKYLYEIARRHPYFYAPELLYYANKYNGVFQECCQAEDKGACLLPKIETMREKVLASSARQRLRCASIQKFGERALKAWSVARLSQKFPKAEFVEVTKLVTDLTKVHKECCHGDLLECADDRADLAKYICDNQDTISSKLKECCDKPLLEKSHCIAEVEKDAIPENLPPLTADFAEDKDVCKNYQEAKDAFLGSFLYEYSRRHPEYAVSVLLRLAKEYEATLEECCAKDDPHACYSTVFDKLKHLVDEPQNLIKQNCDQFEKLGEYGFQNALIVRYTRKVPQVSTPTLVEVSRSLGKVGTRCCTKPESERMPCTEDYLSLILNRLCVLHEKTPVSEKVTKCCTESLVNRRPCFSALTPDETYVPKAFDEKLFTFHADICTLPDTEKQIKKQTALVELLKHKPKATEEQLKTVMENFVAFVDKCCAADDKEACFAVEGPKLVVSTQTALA
Sequence of Potassium channel subfamily K member 9 (Q9NPC2 whole entry): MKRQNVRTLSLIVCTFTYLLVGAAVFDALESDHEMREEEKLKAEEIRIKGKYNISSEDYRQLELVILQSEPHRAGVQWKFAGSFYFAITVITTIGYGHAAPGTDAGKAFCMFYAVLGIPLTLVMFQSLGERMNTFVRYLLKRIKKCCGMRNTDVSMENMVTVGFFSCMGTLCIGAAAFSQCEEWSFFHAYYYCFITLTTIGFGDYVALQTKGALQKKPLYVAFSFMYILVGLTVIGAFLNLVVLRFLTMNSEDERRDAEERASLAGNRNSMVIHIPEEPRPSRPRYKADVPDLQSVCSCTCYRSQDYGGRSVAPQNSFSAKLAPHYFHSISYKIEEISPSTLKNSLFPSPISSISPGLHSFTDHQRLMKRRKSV

As a reminder, the AC50 is the concentration at which the activity in the assay is half-maximal. `O=C(CC1CC1)N1[C@@H]2CN(S(=O)(=O)c3ccccc3)c3ccccc3[C@@H]2[C@@H]1CO`: the AC50 in the test with HepG2 was 19.8 µM (active); with HEK293 [1], 28 µM (active); in test [2], 28 µM (active).

As for `CO[C@H]1CN(C)C(=O)c2ccc(NC(=O)c3ccc(-c4ccccc4)cc3)cc2OC[C@H](C)NC[C@H]1C`, the figures for the AC50 in [3], in test [4] and in [5] were 32.2 µM (active), > 52 µM (inactive) and 33.9 µM (active), respectively.

`COC(=O)C1=C(C)N(Cc2ccc(Cl)cc2)C(=S)NC1c1cccc(Cl)c1` (stereo unspecified): the AC50 is > 70 µM (inactive) in the test on Cryptococcus neoformans, > 47 µM (inactive) with HeLa, 23.4 µM (active) in the test on HEK293 [1] and 23.4 µM (active) in test [2].

As usually defined, the IC50 is the midpoint of a concentration-inhibition curve. Consider `O=C(Nc1cccc(NC(=O)C2CCCCC2)c1)c1ccccc1`, for which the IC50 in test [6] was 8 µM (active).

`COc1cccc(S(=O)(=O)N(C)C[C@@H]2Oc3cc(C4=CCCCC4)ccc3S(=O)(=O)N([C@H](C)CO)C[C@@H]2C)c1`: the AC50 in test [7] was 25.1 µM (active).

Turning to `O=C1NC(=S)N(c2ccccc2)C(=O)/C1=C/c1ccc(-c2ccc(C(=O)O)c(Cl)c2)o1`, on NS3, the IC50 is 96.9 µM (active).

In the case of `COc1ccc(C(=O)NCc2cc(C(C)C)no2)cc1OCCN1CCOCC1`, the IC50 in test [8] is 6.12 µM (active).

By EC50 is commonly meant the concentration needed to bring the measured effect to its halfway point. With `O=C(CNC(=O)c1cccc(Br)c1)N/N=C/c1cc(Br)cc(Br)c1O`, the EC50 (in the test on HEK293 [9]; in test [12]) was > 20 µM (inactive) throughout. Further, the IC50 in the test on HEK293 [10] is 19.4 µM (active); in the test on HEK293 [11], > 20 µM (inactive); in the test with HEK293 [13], > 20 µM (inactive); with HEK293 [14], > 20 µM (inactive); on Albumin, > 94.1 µM (inactive).
